Drawing on patent publication US20200316100A1, “HALOALKYL FUCOSE-CONTAINING SELECTIN ANTAGONISTS” (GlycoMimetics, Inc., priority 2016, published 2020), this text covers IC50 for one molecule.

By IC50 is commonly meant the point on the concentration scale where inhibition reaches its midpoint. Higher therefore signals weaker potency.

The assay deals with T1, E-selectin/Ig chimera (Homo sapiens, UniProt P16581).
T1 sequence (P16581 22-556): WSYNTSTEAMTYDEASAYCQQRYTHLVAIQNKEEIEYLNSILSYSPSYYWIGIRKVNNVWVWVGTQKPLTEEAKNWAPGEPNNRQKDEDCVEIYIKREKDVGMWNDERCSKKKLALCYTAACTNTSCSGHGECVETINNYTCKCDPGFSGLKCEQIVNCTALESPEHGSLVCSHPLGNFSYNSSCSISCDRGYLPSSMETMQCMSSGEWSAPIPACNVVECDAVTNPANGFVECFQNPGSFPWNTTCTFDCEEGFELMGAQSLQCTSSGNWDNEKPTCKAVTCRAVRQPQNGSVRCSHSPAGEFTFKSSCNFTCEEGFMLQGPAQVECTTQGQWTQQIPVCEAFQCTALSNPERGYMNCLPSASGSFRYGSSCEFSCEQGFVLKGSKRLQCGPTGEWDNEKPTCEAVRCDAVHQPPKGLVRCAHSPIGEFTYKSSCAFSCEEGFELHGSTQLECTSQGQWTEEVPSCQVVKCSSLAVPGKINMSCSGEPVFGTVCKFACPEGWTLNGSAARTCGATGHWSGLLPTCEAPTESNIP
Nature of the assay: E-Selectin Activity - Alternative Binding Assay (inhibition of sLea binding to immobilized E-selectin/Ig chimera). As to conditions: concentration required to inhibit binding of biotinylated sLea polyacrylamide/streptavidin-HRP conjugate to immobilized E-selectin by 50%; absorbance 450 nm. On the procedure: E-selectin/Ig chimera was immobilized in 96 well microtiter plates by incubation at 37° C. for 2 hours. To reduce nonspecific binding, bovine serum albumin was added to each well and incubated at room temperature for 2 hours. The plate was washed and serial dilutions of the test compounds were added to the wells in the presence of conjugates of biotinylated, sLe^a polyacrylamide with streptavidin/horseradish peroxidase and incubated for 2 hours at room temperature.
To determine the amount of sLe^a hound to immobilized E-selectin after washing, the peroxidase substrate, 3,3′,5,5′ tetrametbylbenzidine (TMB) was added. After 3 minutes, the enzyme reaction was stopped by the addition of H3PO4, and the absorbance of light at a wavelength of 450 nm was determined.

With `CCC1CCCC(OC2OC(CO)C(O)C(OC(CC3CCCCC3)C(=O)O)C2OC(=O)c2ccccc2)C1OC1OC(C(F)(F)F)C(O)C(O)C1O` [Compound 75, sodium (5)-2-(((2R,3R,4S,5S,6R)-3-(benzoyloxy)-2-(((1R,2R,3S)-3-ethyl-2-(((2R,3S,4R,5S,6R)-3,4,5-trihydroxy-6-(trifluoromethyl)tetrahydro-2H-pyran-2-yl)oxy)cyclohexypoxy)-5-hydroxy-6-(hydroxymethyl)tetrahydro-2H-pyran-4-yl)oxy)-3-cyclohexylpropanoate], the IC50 turned out to be 700 nM.
